Assay results as given in US20150148538A1, “USE OF AN H4 AGONIST MOLECULE TO TREAT ACUTE LEUKEMIA” (priority 2013, published 2015).

Columns and labels:
[1] = tested on: Pre T line; assay: Proliferation inhibition of Pre T lymphoid line (cell count or XTT test); assay type: cell-based
Method: (§1) The lymphoid line is represented by the following clonal malignant cells: the Pre T line and the Pro B line. The cells are cultured using the same technique as the myeloid lines.
(§2) The reading is done on the third day, and the number of cells in the proliferation phase is measured. The ratio between the cells in the proliferation phase and the cells that are not proliferating yields the percentage of cells in inhibition. Normally, all of the cells are in the proliferation phase when the cells are stimulated with GMCSF.
(§3) The results are expressed in proliferation inhibition % (n=3): The result is the Mean of the three tests done.
(§4) The results are expressed in estimated proliferation inhibition % by cell count or by rock proliferation test. This test measures the incorporation of a dye when the cells are proliferating (XTT test).

[2] = tested on: TF1 line; assay: Proliferation inhibition of TF1 myeloid leukemia line (cell count or XTT test); assay type: cell-based
Method: (§5) The myeloid line is represented by the following clonal malignant cells: the HL60 line and the TF1 line. TF1 constitutively expresses the histamine H4 receptor and proliferates in response to GMCSF.
(§6) Tritoqualine, a mixture of 2 enantiomers, has been tested on this line between 10^−5 and 10^−7M with or without CB 10^−5M addition.
(§7) The TF1 line and the HL60 line are represented by inoculates of 100,000 cells in one milliliter incubated for 3 days with GM-CSF (10 ng/ml).
(§8) The reading is done on the third day and the number of cells in the proliferation phase is measured. […] Normally, all of the cells are in the proliferation phase when the cells are stimulated with GMCSF.
(§9) The results are expressed in proliferation inhibition % (n=3): The result is the Mean of the three tests performed.
as §4

[3] = tested on: Pro B line; assay: Proliferation inhibition of Pro B lymphoid line (cell count or XTT test); assay type: cell-based
Method: as §1, §2, §3, §4

[4] = molecular target: T1, histamine H4 receptor (Homo sapiens, UniProt Q9H3N8); conditions: unit not given; cited from earlier work
[5] = Solubility in water; assay type: physicochemical; conditions: including with fetal calf serum added
Text: We dilute the tritoqualine in dimethyl sulfoxide, also called DMSO.

[6] = tested on: HL60 line; assay: Proliferation inhibition of HL60 myeloid leukemia line (cell count or XTT test); assay type: cell-based; conditions: tritoqualine at 10^-5; 3 days with GM-CSF 10 ng/ml; mean of n=3
Method: as §5, §6, §7, §8, §9, §4

[7] = molecular target: T1, histamine H4 receptor; assay: Reversal of tritoqualine effect by a histamine H4 antagonist; assay type: cell-based; conditions: with a histamine H4 antagonist; myeloid cells
Text: This appears to indicate that the H4 agonist effect is indeed responsible for the activity of tritoqualine.

[8] = white powder; breaks down into Cotarnine and phthalic acid; cited from earlier work

T1 sequence (Q9H3N8 whole entry, species assumed): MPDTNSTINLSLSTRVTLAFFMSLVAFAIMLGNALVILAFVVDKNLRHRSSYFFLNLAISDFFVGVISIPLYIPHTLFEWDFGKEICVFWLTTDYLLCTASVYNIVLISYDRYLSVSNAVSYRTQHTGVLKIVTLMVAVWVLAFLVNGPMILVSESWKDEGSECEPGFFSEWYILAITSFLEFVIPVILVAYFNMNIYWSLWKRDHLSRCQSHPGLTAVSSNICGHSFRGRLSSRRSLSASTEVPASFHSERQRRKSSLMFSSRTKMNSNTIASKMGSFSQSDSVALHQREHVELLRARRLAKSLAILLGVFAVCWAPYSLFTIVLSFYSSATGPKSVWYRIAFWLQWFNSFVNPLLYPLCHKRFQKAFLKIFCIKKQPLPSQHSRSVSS

| SMILES | blocking of proliferation of Pre T cells (in words) [1] | inhibition of proliferation of the myeloid line (in words) ([2]; 'this line' (myeloid, TF1), dose of 10^-5M) | blocking of proliferation of Pro B cells (in words) [3] | affinity (histamine H4 agonist) [4] | solubility in water [5] | proliferation inhibition % of Pre T cells ([1]; at 10^-5, reading on third day, mean of n=3) | proliferation inhibition % of HL60 cells [6] [%] | proliferation inhibition % of TF1 cells ([2]; tritoqualine at 10^-5, 3 days with GM-CSF 10 ng/ml, mean of n=3) | proliferation inhibition % of Pro B cells ([3]; at 10^-5, reading on third day, mean of n=3, equal to the control without product) [%] | effect of a histamine H4 antagonist on the effect of tritoqualine [7] | sensitivity to light [8] |
| --- | --- | --- | --- | --- | --- | --- | --- | --- | --- | --- | --- |
| NC(=NCc1ccc(Cl)cc1)SCCCc1cnc[nH]1 [Clobenpropit] | block the proliferation | inhibits the proliferation | not | 10^−9 | – | – | – | – | – | – | – |
| CCOc1c(N)c2c(c(OCC)c1OCC)C(C1c3c(cc4c(c3OC)OCO4)CCN1C)OC2=O (centres unmarked) [tritoqualine, (AMINO-7 TRIETHOXY-4,5,6 OXO-1 DIHYDRO-1,3 ISOBENZOFURANNYL-3)-1 METHOXY-8 METHYL-2METHYLENEDIOXY-6,7 TETRAHYDRO-,2,3,4 ISOQUINOLEINE] | block the proliferation | – | not | 10^−6 | low solubility | approximately 45% | ~68 | approximately 58% | 15 | inhibits the effect of tritoqualine | very sensitive to light |
